Entries after “also recorded” stand apart in the source; their conditions may differ. Read-outs that look alike come from different tables or passages of the source.
Legend:
rat cortical neurons = test: Neurite outgrowth assay; assay type: cell-based; conditions: Cortical neurone, 1 hour treatment at DIV 4, analysed DIV 7, fold vs DMSO control
In short: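 Embryonic day 18 rat cortical neurons, 20,000 cells/well in Neurobasal/B27, were exposed at DIV 4 to 10 μM compound for 1 hour, then washed out. At DIV 7, β-III-tubulin immunostaining and automated imaging gave neurite length, branch points, root and extremity counts, reported as fold-change versus DMSO; triplicates.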

cortical neurons = test: Dendritogenesis assay, Sholl analysis; assay type: cell-based, rat; conditions: for Emax at 10 µM: Rattus norvegicus, Cortical neurone, Nmax with vehicle (DMSO) = 0% and ketamine = 100%, read-out: % efficacy in sholls; for psychoplastogenic efficacy and potency, concentration-response (Nmax): concentrations ranging from 10 μM to 10 pM (FIG. 6)
In short: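 Rat cortical neurons (timed-pregnant Sprague Dawley) were treated at DIV3 with compound at 10 μM unless noted (0.1% DMSO) for 1 h, washed out, grown 71 h more. Fixed, MAP2-immunostained, imaged; Sholl Nmax, with % efficacy scaled to DMSO (0%) and ketamine (100%).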

rats = rats trained to discriminate DOM from saline, cited from earlier work
C57BL/6J mice = test: Head twitch response (HTR) assay; assay type: in vivo, mouse; conditions: intraperitoneal injection, head-twitches over 20 mins (FIG. 8, FIG. 9)
Text: Animals. For the dendritogenesis experiments, timed pregnant Sprague Dawley rats were obtained from Charles River Laboratories (Wilmington, Mass.). For the head-twitch response assay, male and female C57BL/6J mice were obtained from Jackson Laboratory (Sacramento, Calif.). Mice were housed in a temperature and humidity-controlled room maintained on a 12-h light/dark cycle in groups of 4-5 (same sex). Animals weighed between 17 and 30 g at the time of the experiments. All experimental procedures involving rodents were approved by the UC Davis Institutional Animal Care and Use Committee (IACUC) and adhered to principles described in the National Institutes of Health Guide for the Care and Use of Laboratory Animals. The University of California, Davis and the University of California, San Francisco are accredited by the Association for Assessment and Accreditation of Laboratory Animal Care International (AAALAC).
Head twitch response experiments. Mice (9-10 weeks old) were injected intraperitoneally with compound (injection volume 5 ml/kg), placed in an empty cage, and filmed for 20 minutes. Cages were cleaned with 70% ethanol between experiments.

[1] = read-out: Neurite Average Length @ 10 μM
[2] = read-out: Neurite Branch Points: @ 10 μM

Row | SMILES | melting point [°C] | fold induction at 10 µM (rat cortical neurons; [1]) | fold induction at 10 µM (rat cortical neurons; [2]) | Emax at 10 µM (cortical neurons; 10 μM) [%] | substitution for hallucinogenic training drug (DOM) in drug discrimination (rats) | substitution for hallucinogenic training drug (DOM) in drug discrimination (rats; listed as 5-MeO-isoDMT) | head-twitch response (hallucinogenic potential) (C57BL/6J mice) | psychoplastogenic efficacy and potency, concentration-response (Nmax) (cortical neurons) | dendritic arbor complexity / neuronal growth (Nmax of Sholl plots) (cortical neurons; cortical neurons, 10 μM)
1 | COc1cccc2c1ccn2CCN(C)C.O=C(O)/C=C/C(=O)O [Example 3, 2-(4-methoxy-1H-indol-1-yl)-N,N-dimethylethan-1-amine] | 140 to 145 | < 1.5 | 1.5 to 3 | 26 | – | – | – | – | –
2 | COc1ccc2c(ccn2CCN(C)C)c1.O=C(O)/C=C/C(=O)O [Example 4, 2-(5-methoxy-1H-indol-1-yl)-N,N-dimethylethan-1-amine] | 140 to 142 | 1.5 to 3 | 1.5 to 3 | 65 | low hallucinogenic potential | does not | low hallucinogenic potential; also recorded: did not produce any HTR | exceptional psychoplastogen | –
3 | COc1ccc2ccn(CCN(C)C)c2c1 [Example 5, 2-(6-methoxy-1H-indol-1-yl)-N,N-dimethylethan-1-amine] | – | 1.5 to 3 | 1.5 to 3 | 95 | substitutes | – | significantly less potent | comparable maximum efficacies and had similar potencies as isosteric DMTs (1 and 28) | performed identically to 28 and 29
4 | COc1cccc2ccn(CCN(C)C)c12.O=C(O)/C=C/C(=O)O [Example 6, 2-(7-methoxy-1H-indol-1-yl)-N,N-dimethylethan-1-amine] | 120 to 123 | 1.5 to 3 | 1.5 to 3 | 92 | – | – | – | – | –
5 | COc1ccc2c(ccn2C[C@@H](C)N(C)C)c1 [Example 59, (R)-1-(5-methoxy-1H-indol-1-yl)-N,N-dimethylpropan-2-amine] | – | 1.5 to 3 | > 3 | – | – | – | did not produce any HTR | – | –
6 | C[C@H](Cn1ccc2cc(F)ccc21)N(C)C [Example 60, (R)-1-(5-fluoro-1H-indol-1-yl)-N,N-dimethylpropan-2-amine] | – | 1.5 to 3 | 1.5 to 3 | – | – | – | did not produce any HTR | – | –
